Reference: ChEMBL document CHEMBL4825753 (J Med Chem, 2021)
Active and inactive are the calls of the source. The rule behind the calls is not given here.

How the values were obtained:
[1] = test system: BaF3; assay: Growth inhibition of mouse BaF3 cells transfected with MER assessed as inhibition of cell growth incubated for 72 hrs by Cell-titer-Glo assay; type: functional
[2] = test system: BaF3; assay: Growth inhibition of mouse BaF3 cells transfected with AXL assessed as inhibition of cell growth incubated for 72 hrs by Cell-titer-Glo assay; type: functional
[3] = test system: BaF3; assay: Growth inhibition of mouse BaF3 cells transfected with FLT3 assessed as inhibition of cell growth incubated for 72 hrs by Cell-titer-Glo assay; type: functional
[4] = test system: BaF3; assay: Growth inhibition of mouse BaF3 cells transfected with Tyro3 assessed as inhibition of cell growth incubated for 72 hrs by Cell-titer-Glo assay; type: functional
[5] = test system: BaF3; assay: Growth inhibition of mouse BaF3 cells assessed as inhibition of cell growth incubated for 72 hrs by Cell-titer-Glo assay; type: functional
[6] = test system: BaF3; assay: Antitumour activity against mouse BaF3 cells transfected with MER implanted in C57BL/6J mouse assessed as reduction in tumour growth at 100 mg/kg, po bid for 6 days; type: functional, organism-based; details: time 6.0 day
[7] = test system: BaF3; assay: Antitumour activity against mouse BaF3 cells transfected with AXL implanted in C57BL/6J mouse assessed as reduction in tumour growth at 3 to 100 mg/kg, po bid for 6 days; type: functional, organism-based; details: dose 3-100 mg/kg, time 6.0 day
[8] = Fraction unbound in C57BL/6J mouse implanted with mouse BaF3 cells transfected with MER in at 3 to 100 mg/kg, po bid for 6 days; type: ADME, organism-based; details: in vivo, dose 3-100 mg/kg, time 6 day
[9] = Fraction unbound in C57BL/6J mouse implanted with mouse BaF3 cells transfected with AXL in at 3 to 100 mg/kg, po bid for 6 days; type: ADME, organism-based; details: in vivo, dose 3-100 mg/kg, time 6 day
[10] = test system: BaF3; assay: Antitumour activity against mouse BaF3 cells transfected with MER implanted in C57BL/6J mouse assessed as reduction in MER phosphorylation at 30 to 100 mg/kg, po bid for 6 days by western blot analysis; type: functional, organism-based; details: dose 30-100 mg/kg, time 6.0 day
[11] = test system: BaF3; assay: Antitumour activity against mouse BaF3 cells transfected with AXL implanted in C57BL/6J mouse assessed as reduction in AXL phosphorylation at 30 to 100 mg/kg, po bid for 6 days western blot analysis; type: functional, organism-based; details: dose 30-100 mg/kg, time 6.0 day
[12] = test system: MC-38; assay: Antitumour activity against mouse MC38 cells implanted in C57BL6 mouse assessed as increase in survival at 100 mg/kg, po bid for 2 weeks co-treatment with anti-PD1 further treated with ionizing radiation; type: functional, organism-based
[13] = target: T1, Tyrosine-protein kinase Mer (Homo sapiens, UniProt Q12866); assay: Inhibition of MER (unknown origin) by LC-MS analysis
T1 sequence (Q12866 whole entry): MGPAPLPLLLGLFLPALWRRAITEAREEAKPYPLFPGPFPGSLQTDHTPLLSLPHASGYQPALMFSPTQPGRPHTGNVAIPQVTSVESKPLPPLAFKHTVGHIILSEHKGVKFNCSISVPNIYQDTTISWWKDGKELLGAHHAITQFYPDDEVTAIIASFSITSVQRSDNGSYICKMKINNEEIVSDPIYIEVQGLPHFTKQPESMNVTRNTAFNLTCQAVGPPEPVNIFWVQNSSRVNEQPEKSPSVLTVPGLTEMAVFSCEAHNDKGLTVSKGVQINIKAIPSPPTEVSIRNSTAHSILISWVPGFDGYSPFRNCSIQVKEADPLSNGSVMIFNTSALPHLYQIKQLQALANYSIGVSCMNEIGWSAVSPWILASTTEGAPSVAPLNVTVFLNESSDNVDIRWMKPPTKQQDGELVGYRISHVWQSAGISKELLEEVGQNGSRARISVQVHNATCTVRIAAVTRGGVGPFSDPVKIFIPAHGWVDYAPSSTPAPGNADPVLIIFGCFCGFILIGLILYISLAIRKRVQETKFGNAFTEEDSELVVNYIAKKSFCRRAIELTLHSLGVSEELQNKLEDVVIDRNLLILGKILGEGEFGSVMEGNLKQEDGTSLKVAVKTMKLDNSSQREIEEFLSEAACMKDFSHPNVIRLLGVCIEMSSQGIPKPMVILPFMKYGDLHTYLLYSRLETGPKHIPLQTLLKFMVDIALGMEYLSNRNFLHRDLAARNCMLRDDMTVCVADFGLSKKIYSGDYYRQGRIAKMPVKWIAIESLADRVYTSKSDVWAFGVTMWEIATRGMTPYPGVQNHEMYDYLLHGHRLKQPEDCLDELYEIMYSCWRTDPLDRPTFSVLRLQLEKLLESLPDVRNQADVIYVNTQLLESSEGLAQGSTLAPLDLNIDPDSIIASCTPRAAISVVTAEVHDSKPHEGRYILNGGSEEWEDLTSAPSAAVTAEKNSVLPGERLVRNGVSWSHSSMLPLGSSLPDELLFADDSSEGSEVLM

[14] = target: T2, Tyrosine-protein kinase receptor UFO (Homo sapiens, UniProt P30530); assay: Inhibition of AXL (unknown origin) by LC-MS analysis
T2 sequence (P30530 whole entry): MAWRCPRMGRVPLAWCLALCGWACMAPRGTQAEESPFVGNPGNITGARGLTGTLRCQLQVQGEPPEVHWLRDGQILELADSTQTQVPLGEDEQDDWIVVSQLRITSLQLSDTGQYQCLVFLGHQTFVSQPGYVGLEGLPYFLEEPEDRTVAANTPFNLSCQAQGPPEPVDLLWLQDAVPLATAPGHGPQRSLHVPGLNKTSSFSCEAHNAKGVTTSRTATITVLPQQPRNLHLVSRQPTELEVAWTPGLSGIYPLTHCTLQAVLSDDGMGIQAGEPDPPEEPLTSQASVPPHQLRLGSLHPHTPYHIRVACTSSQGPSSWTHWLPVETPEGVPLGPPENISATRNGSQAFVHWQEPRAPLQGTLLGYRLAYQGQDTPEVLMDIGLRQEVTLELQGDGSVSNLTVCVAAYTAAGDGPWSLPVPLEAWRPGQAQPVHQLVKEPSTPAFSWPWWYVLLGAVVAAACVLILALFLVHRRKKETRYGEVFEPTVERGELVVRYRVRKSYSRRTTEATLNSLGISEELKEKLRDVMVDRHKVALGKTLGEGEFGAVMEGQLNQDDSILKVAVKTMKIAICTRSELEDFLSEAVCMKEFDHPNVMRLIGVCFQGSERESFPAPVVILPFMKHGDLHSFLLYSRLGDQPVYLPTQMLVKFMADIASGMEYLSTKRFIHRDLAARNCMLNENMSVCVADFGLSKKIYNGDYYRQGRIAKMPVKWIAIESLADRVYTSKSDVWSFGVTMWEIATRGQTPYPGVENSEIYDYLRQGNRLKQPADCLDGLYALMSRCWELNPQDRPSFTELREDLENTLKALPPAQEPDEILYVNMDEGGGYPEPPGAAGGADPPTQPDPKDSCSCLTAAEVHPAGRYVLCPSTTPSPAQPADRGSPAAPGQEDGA

[15] = Photostability of compound assessed as half life; type: physicochemical

Compound	GI50 [1] [nM]	GI50 [2] [nM]	GI50 [3] [nM]	GI50 [4] [nM]	GI50 [5] [nM]	Activity [6]	Activity [7]	fraction unbound at 144 h [8]	fraction unbound at 144 h [9]	Activity [10]	Activity [11]	Activity [12]	IC50 [13] [nM]	IC50 [14] [nM]	half-life [15] [h]
Cc1cc(-c2c(C)nn(C)c2C)cnc1-c1nnc(N(C)Cc2ccc3ncc(-c4ccc(CN(C)C)cc4)n3c2)o1	25.1	100	3160	5010	3980	Active	Active	0.076	0.076	Active	Active	Active			
Cc1cc(-c2c(C)nn(C)c2C)cnc1-c1nnc(N(C)Cc2ccc3nccn3c2)o1													100	1000	
Cc1cc(-c2c(C)nn(C)c2C)ccc1-c1nnc(N(C)Cc2ccc3nccn3c2)o1													3.16	79.4	69
